US6602854B1, “Branched multimeric Apo A-I agonist compounds” (priority 1997, dated 2003)
Where a SMILES comes first, the peptide text is derived from it. Where no end group is shown, it is not given here. [ ]: non-standard residue; d: D form. Aib = CC(C)(N)C(=O)O

Key:
[1] = molecular target: T1, LCAT (purified from human plasma) (Homo sapiens, UniProt P04180); experiment: LCAT activation assay; assay type: biochemical; design: ACTIVITY (%) LCAT: concentration or dose not given beside the values; settings: for ACTIVITY (%) LCAT: LCAT activation as compared with native human ApoA-I; for LCAT activation: as compared with native ApoA-I (100%)
T1 construct: from tissue; host or cells: human plasma
T1 sequence (P04180 25-440): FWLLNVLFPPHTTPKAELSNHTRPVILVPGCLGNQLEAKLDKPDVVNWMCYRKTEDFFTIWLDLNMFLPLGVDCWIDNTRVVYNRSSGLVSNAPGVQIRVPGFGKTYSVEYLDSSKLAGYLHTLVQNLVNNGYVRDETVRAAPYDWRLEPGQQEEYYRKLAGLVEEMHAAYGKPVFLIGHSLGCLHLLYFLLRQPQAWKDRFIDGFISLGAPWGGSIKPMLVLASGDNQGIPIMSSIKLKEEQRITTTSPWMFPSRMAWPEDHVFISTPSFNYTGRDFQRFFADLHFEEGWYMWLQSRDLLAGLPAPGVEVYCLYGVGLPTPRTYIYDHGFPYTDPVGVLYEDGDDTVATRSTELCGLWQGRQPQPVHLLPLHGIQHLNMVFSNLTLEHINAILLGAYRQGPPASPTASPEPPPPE
Procedure: The peptides synthesized as described in Section 6, supra, were analyzed in vitro for their ability to activate LCAT. In the LCAT assay, substrate vesicles (small unilamellar vesicles or “SUVs”) composed of egg phophatidylcholine (EPC) or 1-Palmitoyl-2-oleyl-phosphatidyl-choline (POPC) and radiolabelled cholesterol are preincubated with equivalent masses either of peptide or ApoA-I (isolated from human plasma). The reaction is initiated by addition of LCAT (purified from human plasma). Native ApoA-I, which was used as positive control, represents 100% activation activity. “Specific activity” (i.e., units of activity (LCAT activation)/unit of mass) of the peptides can be calculated as the concentration of peptide that achieves maximum LCAT activation. For example, a series of concentrations of the peptide (e.a., a limiting dilution) can be assayed to determine the “specific activity” for the peptide—the concentration which achieves maximal LCAT activation (i.e., percentage conversion of cholesterol to cholesterol ester) at a specific timepoint in the assay (e.g., 1 hr.). When plotting percentage conversion of cholesterol at, e.g., 1 hr., against the concentration of peptide used, the “specific activity” can be identified as the concentration of peptide that achieves a plateau on the plotted curve.
The vesicles used in the LCAT assay are SUVs composed of egg phosphatidylcholine (EPC) or 1-palmitoyl-2-oleyl-phosphatidylcholine (POPC) and cholesterol with a molar ratio of 20:1. To prepare a vesicle stock solution sufficient for 40 assays, 7.7 mg EPC (or 7.6 mg POPC; 10 μmol), 78 μg (0.2 μmol) 4-^14C-cholesterol, 116 μg cholesterol (0.3 μmol) are dissolved in 5 ml xylene and lyophilized. Thereafter 4 ml of assay buffer is added to the dry powder and sonicated under nitrogen atmosphere at 4° C. Sonication conditions: Branson 250 sonicator, 10 mm tip, 6×5 minutes; Assay buffer: 10 mM Tris, 0.14 M NaCl, 1 mM EDTA, pH 7.4). The sonicated mixture is centrifuged 6 times for 5 minutes each time at 14,000 rpm (16,000×g) to remove titanium particles. The resulting clear solution is used for the enzyme assay.
For the LCAT purification, dextran sulfate/Mg^2+ treatment of human plasma is used to obtain lipoprotein deficient serum (LPDS), which is sequentially chromatographed on Phenylsepharose, Affigelblue, ConcanavalinA sepharose and anti-ApoA-I affinity chromatography, as summarized for a representative purification in TABLE IX, below: […]

[2] = Circular dichroism: degree of helicity (free, SUVs, micelles, TFE); settings: for He (%) free: percent helicity of free, unbound peptide; for He (%) SUVs: percent helicity of peptide-SUV complexes; for He (%) TFE: percent helicity of peptide-TFE solution; for He (%) mics: percent helicity of peptide-micelle complexes
Outline: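 Far-UV CD (190–260 nm) at 37 °C on 5 μM peptide in 5 mM phosphate pH 7.4, either free, with EPC:Chol 20:1 SUVs (Ri 30 or 50), with lysophosphatidylcholine micelles (Ri 100), or in 90% TFE. Helicity derived from mean residue ellipticity at 222 nm or CONTIN fitting to reference spectra.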

Row | Molecule | ACTIVITY (%) LCAT [1] | LCAT activation [1] | He (%) free [2] | He (%) SUVs [2] | He (%) TFE [2] | He (%) mics [2] | LCAT activation (in words) [1]
1 | CC(=O)N1CCC[C@H]1C(=O)N[C@H](C(=O)N[C@@H](CC(C)C)C(=O)N[C@@H](CC(=O)O)C(=O)N[C@@H](CCC(=O)O)C(=O)N[C@@H](Cc1ccccc1)C(=O)N[C@@H](CCCN=C(N)N)C(=O)N[C@@H](CCC(=O)O)C(=O)N[C@@H](CCCCN)C(=O)N[C@@H](CC(C)C)C(=O)N[C@@H](CC(N)=O)C(=O)N[C@@H](CCC(=O)O)C(=O)N[C@@H](CCC(=O)O)C(=O)N[C@@H](CC(C)C)C(=O)N[C@@H](CCC(=O)O)C(=O)N[C@@H](C)C(=O)N[C@@H](CC(C)C)C(=O)N[C@@H](CCCCN)C(=O)N[C@@H](CCC(N)=O)C(=O)N[C@@H](CCCCN)C(=O)N[C@@H](CC(C)C)C(=O)N[C@@H](CCCCN)C(N)=O)C(C)C [Segrest's consensus 22-mer, reference compound] (Ac-PVLDEFREKLNEELEALKQKLK-NH2) | 10% | 10% |  |  |  |  | 
2 | PVLDLFRELLNELLEALOQOLO [peptide 14] | 61% |  | 70% | 80% |  | 96% | 
3 | PVLDLFRELLNELLEAZKQKLK [peptide 10] | 79% |  | 60% | 70% | 71% | 87% | 
4 | EWLEAFYKKVLEKLKELF [peptide 18AM4, reference compound] |  | less than 4% | 18% | 47% |  | 44% | 
5 | PVLDLFRELLNLXLEALKEKLK (PVLDLFRELLNL[Aib]LEALKEKLK) [peptide 102, X is Aib; Gln-19 replaced by Glu-19] |  |  |  |  |  |  | did not activate LCAT
6 | pVLDLFRELLNELLEALKQKLKK [peptide 5] | 90% |  |  |  |  |  | 
7 | pVLDLFRELLNELLEALKQKLK [peptide 21] | 57% |  |  |  |  |  | 

Other lines, results leading:

Row | ACTIVITY (%) LCAT [1] | LCAT activation [1] | He (%) free [2] | He (%) SUVs [2] | He (%) TFE [2] | He (%) mics [2] | LCAT activation (in words) [1] | Molecule
8 | 44% |  | 72% | 82% | 81% | 92% |  | PVLDLFRELLNELZEALKQKLK [peptide 27]
9 | 58% |  |  |  |  |  |  | pVLDLFRELLNEGLEALKQKLK [peptide 19]
